Patent US20030114512A1, “Compounds with 5-ht2 and 5-ht1a agonist activity for treating glaucoma” (priority 2002, published 2003)
Where two headings read alike, the source gives them in different places.

Tests used:
intraocular pressure [1] = test: IOP response in lasered (hypertensive) eyes of conscious cynomolgus monkeys; type: in vivo, cynomolgus monkey; conditions: 300 μg topical ocular
Procedure: IOP Response in Lasered (Hypertensive) Eyes of Conscious Cynomolgus Monkeys
Intraocular pressure (IOP) was determined with an Alcon Pneumatonometer after light corneal anesthesia with 0.1% proparacaine. Eyes were washed with saline after each measurement. After a baseline IOP measurement, test compound was instilled in one 30 μL aliquot to the right eyes only of nine cynomolgus monkeys. Vehicle was instilled in the right eyes of six additional animals. Subsequent IOP measurements were taken at 1, 3, and 6 hours.

5-HT2 receptor = biological target: T1, 5-HT2 receptor (Rattus norvegicus, UniProt P14842); test: 5-HT2 functional assay: phosphoinositide (PI) turnover; type: cell-based; conditions: for Emax: A7r5 cells, relative to 5-HT set at 100%, read-out: Efficacy (Emax, %) 5-HT2 functional; for EC50: [3H]inositol phosphates, A7r5 rat vascular smooth muscle cells, read-out: EC50, nM (SEM) 5-HT2 functional
T1 construct: A7r5 rat vascular smooth muscle cells; endogenous in cells; host or cells: A7r5 rat vascular smooth muscle cells
T1 sequence (P14842 whole entry): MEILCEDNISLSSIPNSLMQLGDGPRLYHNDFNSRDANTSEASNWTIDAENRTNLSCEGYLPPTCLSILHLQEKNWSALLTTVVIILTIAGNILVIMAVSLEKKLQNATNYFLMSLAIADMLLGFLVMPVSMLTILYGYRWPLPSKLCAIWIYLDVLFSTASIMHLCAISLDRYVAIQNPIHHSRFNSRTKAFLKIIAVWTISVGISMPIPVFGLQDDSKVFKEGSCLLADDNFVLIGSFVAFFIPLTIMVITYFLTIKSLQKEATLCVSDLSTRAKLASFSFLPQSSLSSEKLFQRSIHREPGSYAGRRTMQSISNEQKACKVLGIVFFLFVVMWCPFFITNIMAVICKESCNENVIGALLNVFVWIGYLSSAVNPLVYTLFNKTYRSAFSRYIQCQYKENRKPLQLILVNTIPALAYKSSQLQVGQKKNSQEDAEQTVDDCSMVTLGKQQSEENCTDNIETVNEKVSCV
Procedure: 5-HT2 Functional Assay: Phosphoinositide (PI) Turnover Assay
The relative agonist activity of serotonergic compounds at the 5-HT2 receptor can be determined in vitro using the ability of the compounds to stimulate the production of [^3H]inositol phosphates in [^3H]myo-inositol-labeled A7r5 rat vascular smooth muscle cells by their ability to activate the enzyme phospholipase C. These cells are grown in culture plates, maintained in a humidified atmosphere of 5% CO2 and 95% air and fed semi-weekly with Dulbecco's modified Eagle medium (DMEM) containing 4.5 g/l glucose and supplemented with 2 mM glutamine, 10 μg/ml gentamicin, and 10% fetal bovine serum. For the purpose of conducting the phosphoinositide (PI) turnover experiments, the A7r5 cells are cultured in 24-well plates as previously [J. Pharmacol. Expt. Ther., 286, 411 (1998)]. Confluent cells are exposed for 24-30 hrs to 1.5 μCi [^3H]-myo-inositol (18.3 Ci/mmol) in 0.5 ml of serum-free medium. Cells are then rinsed once with DMEM/F-12 containing 10 mM LiCl prior to incubation with the test agent (or solvent as the control) in 1.0 ml of the same medium for 1 hr at 37° C., after which the medium is aspirated and 1 ml of cold 0.1 M formic acid added to stop the reaction. The chromatographic separation of [^3H]-inositol phosphates ([^3H]-IPs) on an AG-1-X8 column is performed as previously described [J. Pharmacol. Expt. Ther. 286, 411 (1998)] with sequential washes with H2O and 50 mM ammonium formate, followed by elution of the total [^3H]-IPs fraction with 1.2 M ammonium formate containing 0.1 M formic acid. The eluate (4 ml) is collected, mixed with 15 ml scintillation fluid, and the total [^3H]-IPs determined by scintillation counting on a beta counter. Concentration-response data are analyzed by the sigmoidal fit function of the Origin Scientific Graphics software (Microcal Software, Northampton, Mass.) to determine agonist potency (EC50 value) and efficacy (Emax). Serotonin (5-HT) is used as a positive control (standard) agonist compound and the efficacy of test compounds is compared to that of 5-HT (set at 100%). The concentration of the compound needed to stimulate the production of [^3H]-IPs by 50% of the maximum response is termed the EC50 value.

[2] = biological target: T2, human cloned 5-HT1A receptors (Homo sapiens, UniProt P08908); test: 5-HT1A receptor binding assay ([3H]8-OH-DPAT); conditions: [3H]8-OH-DPAT, CHO cell membranes; read-out: IC50, nM (SEM) 5-HT1A receptor binding
T2 construct: purchased NEN (manufactured by Biosignal, Inc., Montreal, Canada); host or cells: CHO cells (membranes)
T2 sequence (P08908 1-422): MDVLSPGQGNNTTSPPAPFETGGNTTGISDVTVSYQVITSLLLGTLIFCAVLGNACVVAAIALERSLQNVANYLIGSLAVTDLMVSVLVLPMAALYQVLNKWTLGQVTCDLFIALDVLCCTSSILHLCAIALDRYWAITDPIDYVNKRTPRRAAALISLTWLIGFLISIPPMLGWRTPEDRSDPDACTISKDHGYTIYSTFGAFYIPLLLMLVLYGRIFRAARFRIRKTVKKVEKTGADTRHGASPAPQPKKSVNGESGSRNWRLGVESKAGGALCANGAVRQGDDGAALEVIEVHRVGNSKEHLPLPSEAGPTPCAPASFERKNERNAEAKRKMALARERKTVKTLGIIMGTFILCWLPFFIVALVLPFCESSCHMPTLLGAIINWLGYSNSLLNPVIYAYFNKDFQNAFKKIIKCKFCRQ
Procedure: 5-HT1A Receptor Binding Assay
5-HT1A binding studies were performed with human cloned receptors expressed in Chinese hamster ovary (CHO) cells using (^3H)8-OH DPAT as the ligand. Membranes from Chinese hamster ovary cells (CHO) expressing cloned 5-HT1A receptors (manufactured for NEN by Biosignal, Inc., Montreal, Canada) were homogenized in approximately 40 volumes of 50 mM Tris pH 7.4 for 5 sec. Drug dilutions were made using a Beckman Biomek 2000 robot (Beckman Instruments, Fullerton, Calif.). Incubations were conducted with membrane prep, test compounds, and 0.25 nM [^3H]8-OH-DPAT (NEN, Boston, Mass.) in the same buffer at 27° C. for 1 h. Assays were terminated by rapid vacuum filtration over Whatman GF/B glass fiber filters pre-soaked in 0.3% polyethyleneimine. Bound radioactivity was measured using liquid scintillation spectrometry. Data were analyzed using non-linear curve fitting programs (Sharif et al., J. Pharmac. Pharmacol. 51: 685-694, 1999).
Ligand binding studies can also be run using membrane preparations from calf and rat brain (local source) and human cortex membranes. Specific brain regions were dissected out, homogenized in 10 volumes of 0.32 M sucrose and centrifuged for 10 min at 700×g. The resulting supernatant was centrifuged at 43,500×g for 10 min and the pellet re-suspended in 50 mM Tris-HCl (pH 7.7, 25° C.) using a 10 sec polytron treatment. Aliquots were stored at −140° C. To remove endogenous serotonin, the preps were incubated at 37° C. for 10 min prior to the experiment. Assay incubations were terminated by rapid filtration over Whatman GF/C filters using a Brandel cell harvester. Ki values were calculated using the Cheng-Prusoff equation (De Vry et al., J. Pharm. Exper. Ther. 284:1082-1094, 1998.)

intraocular pressure [3] = conditions: monkey; ascribed to α1A receptor activity; cited from earlier work
intraocular pressure [4] = conditions: rabbits; cited from earlier work

Row | SMILES | Percent IOP Reduction (intraocular pressure [1]; 1 hour after dose) [%] | Percent IOP Reduction (intraocular pressure [1]; 3 hours after dose) [%] | Percent IOP Reduction (intraocular pressure [1]; 6 hours after dose) [%] | Emax (5-HT2 receptor) [%] | EC50 (5-HT2 receptor) [nM] | IC50 [2] [nM] | Effect on IOP (intraocular pressure [3]) | Effect on IOP (intraocular pressure [4])
1 | CC(N)Cn1ccc2cc(Cl)ccc21.O=C(O)/C=C/C(=O)O (centres unmarked) [1-(2-aminopropyl) 5-chloroindole fumarate] | 1.2 | 16 | 20.1 | 104 | 1390 | 417 |  | 
2 | COc1ccc2ccn(CC(C)N)c2c1.O=C(O)/C=C/C(=O)O (centres unmarked) [1-(2-aminopropyl) 6-methoxyindole fumarate] | 22.5 | 33.1 | 27.5 | 88 | 255 | 225 |  | 
3 | COc1ccccc1N1CCN(CCCNc2c(C)c(=O)n(C)c(=O)n2C)CC1 [5-methylurapidil] |  |  |  |  |  |  | lowers IOP | 
4 | CCCN(CCC)C1CCc2cccc(O)c2C1 (centres unmarked) [Compound 8-OH-DPAT, 8-hydroxydipropylaminotetralin] |  |  |  |  |  |  |  | reduces IOP
